From patent US8314092B2, “Substituted [(5H-pyrrolo[2,1-c][1,4]benzodiazepin-11-yl)piperazin-1-yl]-2,2-dimethylpropanoic acid compounds as dual activity H1 inverse agonists/5-HT2A antagonists” (Eli Lilly and Company, priority 2011, dated 2012)
Where a name gives a salt, the structure may show the parent alone.

Tests used:
[1] = target: T1, recombinant 5-HT2A receptor (human) (Homo sapiens, UniProt P28223); test: 5-HT2A competition binding assay ([3H]-Ketanserin SPA)
T1 construct: expressed in transfected cells
Experimental: [^3H]-Ketanserin binding experiments are carried out in SPA 96-well format. Membranes used in this assay are prepared from AV-12 cells stably expressing recombinant 5-HT2A receptor (human). The incubation is initiated by the addition of a mixture of WGA YSi SPA beads (1 mg/well, Perkin Elmer (MA, USA), RPNQ0011) and 2 μg membranes to assay buffer (67 mM Tris, 0.5 mM EDTA; pH 7.6) containing 3.1 nM [^3H]-Ketanserin and varying concentrations of the test compound (10 point concentration response curves). Non-specific binding is determined in the presence of 20 μM 1-(1-Naphthyl)piperazine. Samples were incubated for four hours at room temperature (22° C.) and then read in a Microbeta Trilux.
Curves are evaluated using a 4-parameter logistic nonlinear equation to obtain the concentration of competitor causing 50% inhibition of radioligand binding (IC50). Equilibrium dissociation constants (Ki) are calculated according to the equation Ki=IC50/(1+L/Kd), where L equals the concentration of radioligand used in the experiment and Kd equals the equilibrium dissociation constant of the radioligand for the receptor, determined from standard saturation analysis or homologous competition experiments. Reported values for Ki, where n values are indicated, are shown as geometric mean±the standard error of the mean (SEM), with the number of replicate determinations indicated by n. […]

native GABAA receptors = test: GABAA antagonism using native receptors in primary neuronal cultures (FLIPR calcium flux); format: cell-based, rat; conditions: against 10 μM GABA
Experimental: Activity of compounds on native GABAA receptors is evaluated by monitoring calcium fluxes using a 96 well format FLIPR® system (Fluorometric Imaging Plate Reader (FLIPR®, Molecular Devices). Briefly, cortical embryonic neurons are dissociated from E18 rat embryos and plated at optimum density into black-walled, transparent bottom poly-D-lysine coated 96-well FLIPR® plates. After loading the cells with a calcium sensitive dye (Fluo-4-AM, Molecular Devices), the cells are bathed in a solution containing low chloride (chloride replaced by gluconate). Under these conditions activation of GABAA receptors causes an efflux of chloride ions (in the direction of the chemical gradient), which results in membrane depolarization and consequently activation of voltage gated calcium channels (VGCCs). Calcium influx through VGCCs is recorded and analysed offline using the FLIPR® system. For a pharmacological validation of the assay, concentration response curves (CRC) are recorded for the standard agonist (GABA) and standard antagonist (Gabazine). […]
The antagonist effects of compounds are quantified using 10-point dose response curves by comparing the peak fluorescent responses to the agonist GABA in the presence and absence of compound. […] Antagonist effects are calculated as a percent of the assay window. […]

5-HT1E = 5-HT1E (Homo sapiens, UniProt P28566); test: 5-HT1E binding
Excerpt: Further, the compounds of the invention may be tested in binding assays and functional activity assays by well known methods for other physiologically important receptors such as, but not limited to, the hERG channel, other serotonin receptors (specifically 5-HT1A, 5-HT1B, 5-HT1D, 5-HT1E, 5-HT1F receptors, lack of agonist activity at 5-HT2B receptors, 5-HT2C, 5-HT4, 5-HTS, 5-HT6, and 5-HT7 receptors), muscarinic receptors, dopaminergic receptors (specifically D1, D2, and D3), GABAA receptors, adrenergic receptors and monoamine transporters. Certain exemplified compounds are tested at these receptors and are shown to lack significant activity.

T1 sequence (P28223 whole entry): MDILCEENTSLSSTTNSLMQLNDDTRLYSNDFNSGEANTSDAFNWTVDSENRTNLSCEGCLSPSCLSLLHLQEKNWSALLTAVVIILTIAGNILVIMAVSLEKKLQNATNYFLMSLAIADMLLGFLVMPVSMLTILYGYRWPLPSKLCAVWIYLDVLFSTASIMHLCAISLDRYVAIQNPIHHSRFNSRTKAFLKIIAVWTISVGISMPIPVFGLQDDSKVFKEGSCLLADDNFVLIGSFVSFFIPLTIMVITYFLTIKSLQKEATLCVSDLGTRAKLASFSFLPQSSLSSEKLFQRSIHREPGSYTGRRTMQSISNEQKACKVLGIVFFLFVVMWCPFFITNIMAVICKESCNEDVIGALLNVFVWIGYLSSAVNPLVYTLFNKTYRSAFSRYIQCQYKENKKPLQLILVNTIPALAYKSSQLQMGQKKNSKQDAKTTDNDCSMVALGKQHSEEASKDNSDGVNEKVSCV
Sequence of 5-HT1E (P28566 whole entry, species assumed): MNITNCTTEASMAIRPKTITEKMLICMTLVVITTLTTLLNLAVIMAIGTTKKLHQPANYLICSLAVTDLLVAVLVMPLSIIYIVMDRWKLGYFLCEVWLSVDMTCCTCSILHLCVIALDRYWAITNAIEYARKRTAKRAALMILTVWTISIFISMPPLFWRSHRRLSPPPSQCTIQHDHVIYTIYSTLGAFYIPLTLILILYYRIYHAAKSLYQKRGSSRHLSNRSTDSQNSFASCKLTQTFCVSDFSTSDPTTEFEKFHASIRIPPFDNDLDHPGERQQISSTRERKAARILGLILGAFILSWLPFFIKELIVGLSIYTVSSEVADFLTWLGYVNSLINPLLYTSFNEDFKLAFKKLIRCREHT

Q: For Cc1cc2n(c1)Cc1cc(Cl)ccc1N=C2N1CCN(CC(C)(C)C(=O)O)CC1 [Example 13, 3-[4-(7-Chloro-2-methyl-5H-pyrrolo[2,1-c][1,4]benzodiazepin-11-yl)piperazin-1-yl]-2,2-dimethylpropanoic acid dihydrochloride], which Ki [1] is on record?
A: 63.2 nM

Q: And the IC50 (native GABAA receptors)?
A: > 50000 nM

Q: And the Ki (5-HT1E)?
A: > 5370 nM
